The kinase profiling compilation of Christmann-Franck et al. (2016)

What was measured:
Assay in all cases: KINOMEscan competition binding
Settings in all cases: compound 10.0 µM
WEE2 (human) = WEE2 (human) (UniProt P0C1S8)
TNK1 (human) = TNK1 (human) (UniProt Q13470)
ACVR2B (human) = ACVR2B (human) (UniProt Q13705)
TNNI3K (human) = TNNI3K (human) (UniProt Q59H18)
AKT3 (human) = AKT3 (human) (UniProt Q9Y243)
MINK1 (human) = MINK1 (human) (UniProt Q8N4C8)
VRK2 (human) = VRK2 (human) (UniProt Q86Y07)
MAPK15 (human) = MAPK15 (human) (UniProt Q8TD08)
DMPK (human) = DMPK (human) (UniProt Q09013)
PTK6 (human) = PTK6 (human) (UniProt Q13882)
SRMS (human) = SRMS (human) (UniProt Q9H3Y6)
CASK (human) = CASK (human) (UniProt O14936)
LIMK1 (human) = LIMK1 (human) (UniProt P53667)
KIT (human) = KIT (human) (UniProt P10721)
IRAK3 (human) = IRAK3 (human) (UniProt Q9Y616)
CDK15 (human) = CDK15 (human) (UniProt Q96Q40)
BTK (human) = BTK (human) (UniProt Q06187)
CSK (human) = CSK (human) (UniProt P41240)
RPS6KA4 KD2 (human) = RPS6KA4 KD2 (human) (UniProt O75676)
PKN2 (human) = PKN2 (human) (UniProt Q16513)
PIP4K2C (human) = PIP4K2C (human) (UniProt Q8TBX8)
[1] = test system: FGFR3 (human), P22607 [G697C]
MYO3B (human) = MYO3B (human) (UniProt Q8WXR4)
PRKACB (human) = PRKACB (human) (UniProt P22694)
PAK2 (human) = PAK2 (human) (UniProt Q13177)
MAP2K5 (human) = MAP2K5 (human) (UniProt Q13163)
CDKL5 (human) = CDKL5 (human) (UniProt O76039)
PIK3C2B (human) = PIK3C2B (human) (UniProt O00750)
TLK1 (human) = TLK1 (human) (UniProt Q9UKI8)
RPS6KA6 KD1 (human) = RPS6KA6 KD1 (human) (UniProt Q9UK32)
CSNK1D (human) = CSNK1D (human) (UniProt P48730)
IKBKE (human) = IKBKE (human) (UniProt Q14164)
[2] = test system: PIK3CA (human), P42336 [M1043I]
FGFR1 (human) = FGFR1 (human) (UniProt P11362)
AKT2 (human) = AKT2 (human) (UniProt P31751)
ZAP70 (human) = ZAP70 (human) (UniProt P43403)
[3] = biological target: JAK3 JH1 catalytic (human) (UniProt P52333)
FYN (human) = FYN (human) (UniProt P06241)
EPHA5 (human) = EPHA5 (human) (UniProt P54756)
EGFR (human) = EGFR (human) (UniProt P00533)

Chain of PIK3CA (human), P42336 [M1043I] (P42336 whole entry M1043I, looked up): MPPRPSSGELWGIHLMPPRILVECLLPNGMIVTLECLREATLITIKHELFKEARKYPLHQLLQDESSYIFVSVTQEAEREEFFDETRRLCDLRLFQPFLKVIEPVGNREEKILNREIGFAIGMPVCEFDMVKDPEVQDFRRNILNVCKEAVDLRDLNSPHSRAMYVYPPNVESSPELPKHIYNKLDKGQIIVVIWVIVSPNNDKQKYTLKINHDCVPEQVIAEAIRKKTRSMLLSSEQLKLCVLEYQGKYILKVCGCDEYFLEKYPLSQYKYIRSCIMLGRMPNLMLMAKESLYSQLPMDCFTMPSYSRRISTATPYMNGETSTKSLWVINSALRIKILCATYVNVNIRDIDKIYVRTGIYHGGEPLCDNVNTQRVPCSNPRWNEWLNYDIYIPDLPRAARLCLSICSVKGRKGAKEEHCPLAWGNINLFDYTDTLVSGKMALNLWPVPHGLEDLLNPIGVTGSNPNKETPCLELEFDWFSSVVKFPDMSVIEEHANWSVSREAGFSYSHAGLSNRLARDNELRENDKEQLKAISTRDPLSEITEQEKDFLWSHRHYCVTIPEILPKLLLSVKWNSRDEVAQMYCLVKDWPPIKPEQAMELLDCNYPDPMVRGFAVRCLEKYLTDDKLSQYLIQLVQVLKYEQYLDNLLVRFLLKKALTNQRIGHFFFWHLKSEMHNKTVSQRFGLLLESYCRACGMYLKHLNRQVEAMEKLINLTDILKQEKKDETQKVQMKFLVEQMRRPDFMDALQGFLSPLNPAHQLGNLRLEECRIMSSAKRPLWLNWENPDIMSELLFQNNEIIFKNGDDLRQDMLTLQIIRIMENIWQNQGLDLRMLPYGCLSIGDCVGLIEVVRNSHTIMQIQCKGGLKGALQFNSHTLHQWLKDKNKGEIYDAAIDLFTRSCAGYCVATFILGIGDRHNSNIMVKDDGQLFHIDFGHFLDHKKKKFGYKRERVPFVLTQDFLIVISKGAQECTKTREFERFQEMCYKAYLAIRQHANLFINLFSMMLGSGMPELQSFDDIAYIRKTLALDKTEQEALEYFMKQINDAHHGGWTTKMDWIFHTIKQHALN
Chain of SRMS (human) (Q9H3Y6 whole entry, looked up): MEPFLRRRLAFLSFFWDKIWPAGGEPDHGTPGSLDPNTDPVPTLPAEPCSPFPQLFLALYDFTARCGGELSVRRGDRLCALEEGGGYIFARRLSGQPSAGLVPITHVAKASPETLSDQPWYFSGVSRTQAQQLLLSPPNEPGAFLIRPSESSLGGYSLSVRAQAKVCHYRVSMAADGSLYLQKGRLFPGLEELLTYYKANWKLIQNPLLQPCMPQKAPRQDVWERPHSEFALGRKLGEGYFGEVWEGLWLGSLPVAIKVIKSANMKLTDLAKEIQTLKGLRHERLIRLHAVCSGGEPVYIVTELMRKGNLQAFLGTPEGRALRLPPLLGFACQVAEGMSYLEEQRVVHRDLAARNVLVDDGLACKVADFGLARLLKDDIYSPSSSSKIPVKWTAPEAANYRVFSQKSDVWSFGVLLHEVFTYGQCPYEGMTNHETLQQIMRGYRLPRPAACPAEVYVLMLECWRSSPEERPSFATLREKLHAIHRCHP
Chain of RPS6KA6 KD1 (human) (Q9UK32 whole entry, looked up): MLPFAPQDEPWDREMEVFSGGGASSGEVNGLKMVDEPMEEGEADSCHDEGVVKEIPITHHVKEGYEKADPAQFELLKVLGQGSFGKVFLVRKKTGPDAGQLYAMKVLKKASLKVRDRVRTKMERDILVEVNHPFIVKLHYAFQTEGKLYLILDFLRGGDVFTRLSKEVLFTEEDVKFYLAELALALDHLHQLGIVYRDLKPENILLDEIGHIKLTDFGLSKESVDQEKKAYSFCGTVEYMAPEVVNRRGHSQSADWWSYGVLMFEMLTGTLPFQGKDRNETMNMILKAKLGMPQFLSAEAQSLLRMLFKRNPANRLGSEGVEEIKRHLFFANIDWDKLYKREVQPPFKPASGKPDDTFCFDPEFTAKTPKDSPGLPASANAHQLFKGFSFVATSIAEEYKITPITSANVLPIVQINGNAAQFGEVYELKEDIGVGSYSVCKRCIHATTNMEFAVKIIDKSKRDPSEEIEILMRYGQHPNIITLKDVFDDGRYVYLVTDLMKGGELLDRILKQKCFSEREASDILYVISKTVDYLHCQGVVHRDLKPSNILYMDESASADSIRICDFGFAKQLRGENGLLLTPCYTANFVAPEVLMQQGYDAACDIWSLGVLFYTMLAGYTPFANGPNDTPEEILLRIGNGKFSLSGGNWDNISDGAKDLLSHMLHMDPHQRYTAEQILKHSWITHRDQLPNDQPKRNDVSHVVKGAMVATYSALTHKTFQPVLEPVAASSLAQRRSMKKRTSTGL
Chain of IRAK3 (human) (Q9Y616 whole entry, looked up): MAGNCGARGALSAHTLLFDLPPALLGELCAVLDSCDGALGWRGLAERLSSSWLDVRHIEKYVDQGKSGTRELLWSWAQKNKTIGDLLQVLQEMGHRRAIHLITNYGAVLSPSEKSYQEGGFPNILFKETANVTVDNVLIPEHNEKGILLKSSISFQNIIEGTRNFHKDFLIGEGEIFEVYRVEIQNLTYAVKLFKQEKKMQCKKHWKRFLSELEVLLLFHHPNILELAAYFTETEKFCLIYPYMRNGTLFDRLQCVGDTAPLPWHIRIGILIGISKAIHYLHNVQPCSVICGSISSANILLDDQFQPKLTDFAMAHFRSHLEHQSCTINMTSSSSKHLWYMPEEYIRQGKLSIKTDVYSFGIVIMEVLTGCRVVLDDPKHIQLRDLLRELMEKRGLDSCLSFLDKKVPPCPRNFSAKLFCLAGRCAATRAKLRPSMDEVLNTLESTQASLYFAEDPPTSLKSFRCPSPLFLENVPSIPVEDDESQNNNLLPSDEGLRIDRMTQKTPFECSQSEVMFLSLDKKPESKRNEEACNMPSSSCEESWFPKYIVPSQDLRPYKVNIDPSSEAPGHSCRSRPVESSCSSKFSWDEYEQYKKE
Chain of WEE2 (human) (P0C1S8 whole entry, looked up): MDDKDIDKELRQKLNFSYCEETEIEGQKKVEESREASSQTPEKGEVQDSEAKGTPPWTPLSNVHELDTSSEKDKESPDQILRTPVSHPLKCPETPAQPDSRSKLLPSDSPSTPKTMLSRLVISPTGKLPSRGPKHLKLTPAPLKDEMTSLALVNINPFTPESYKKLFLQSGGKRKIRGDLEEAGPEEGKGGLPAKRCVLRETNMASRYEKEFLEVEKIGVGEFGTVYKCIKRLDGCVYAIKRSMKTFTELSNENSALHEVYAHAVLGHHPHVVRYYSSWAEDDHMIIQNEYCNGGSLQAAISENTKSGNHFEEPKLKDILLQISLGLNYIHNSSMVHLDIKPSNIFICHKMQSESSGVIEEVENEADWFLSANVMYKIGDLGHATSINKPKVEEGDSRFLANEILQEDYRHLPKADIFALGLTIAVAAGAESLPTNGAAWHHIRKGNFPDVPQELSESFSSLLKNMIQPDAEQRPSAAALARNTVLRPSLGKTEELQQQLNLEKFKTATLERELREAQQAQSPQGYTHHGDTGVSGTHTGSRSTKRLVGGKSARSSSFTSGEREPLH
Chain of PIK3C2B (human) (O00750 whole entry, looked up): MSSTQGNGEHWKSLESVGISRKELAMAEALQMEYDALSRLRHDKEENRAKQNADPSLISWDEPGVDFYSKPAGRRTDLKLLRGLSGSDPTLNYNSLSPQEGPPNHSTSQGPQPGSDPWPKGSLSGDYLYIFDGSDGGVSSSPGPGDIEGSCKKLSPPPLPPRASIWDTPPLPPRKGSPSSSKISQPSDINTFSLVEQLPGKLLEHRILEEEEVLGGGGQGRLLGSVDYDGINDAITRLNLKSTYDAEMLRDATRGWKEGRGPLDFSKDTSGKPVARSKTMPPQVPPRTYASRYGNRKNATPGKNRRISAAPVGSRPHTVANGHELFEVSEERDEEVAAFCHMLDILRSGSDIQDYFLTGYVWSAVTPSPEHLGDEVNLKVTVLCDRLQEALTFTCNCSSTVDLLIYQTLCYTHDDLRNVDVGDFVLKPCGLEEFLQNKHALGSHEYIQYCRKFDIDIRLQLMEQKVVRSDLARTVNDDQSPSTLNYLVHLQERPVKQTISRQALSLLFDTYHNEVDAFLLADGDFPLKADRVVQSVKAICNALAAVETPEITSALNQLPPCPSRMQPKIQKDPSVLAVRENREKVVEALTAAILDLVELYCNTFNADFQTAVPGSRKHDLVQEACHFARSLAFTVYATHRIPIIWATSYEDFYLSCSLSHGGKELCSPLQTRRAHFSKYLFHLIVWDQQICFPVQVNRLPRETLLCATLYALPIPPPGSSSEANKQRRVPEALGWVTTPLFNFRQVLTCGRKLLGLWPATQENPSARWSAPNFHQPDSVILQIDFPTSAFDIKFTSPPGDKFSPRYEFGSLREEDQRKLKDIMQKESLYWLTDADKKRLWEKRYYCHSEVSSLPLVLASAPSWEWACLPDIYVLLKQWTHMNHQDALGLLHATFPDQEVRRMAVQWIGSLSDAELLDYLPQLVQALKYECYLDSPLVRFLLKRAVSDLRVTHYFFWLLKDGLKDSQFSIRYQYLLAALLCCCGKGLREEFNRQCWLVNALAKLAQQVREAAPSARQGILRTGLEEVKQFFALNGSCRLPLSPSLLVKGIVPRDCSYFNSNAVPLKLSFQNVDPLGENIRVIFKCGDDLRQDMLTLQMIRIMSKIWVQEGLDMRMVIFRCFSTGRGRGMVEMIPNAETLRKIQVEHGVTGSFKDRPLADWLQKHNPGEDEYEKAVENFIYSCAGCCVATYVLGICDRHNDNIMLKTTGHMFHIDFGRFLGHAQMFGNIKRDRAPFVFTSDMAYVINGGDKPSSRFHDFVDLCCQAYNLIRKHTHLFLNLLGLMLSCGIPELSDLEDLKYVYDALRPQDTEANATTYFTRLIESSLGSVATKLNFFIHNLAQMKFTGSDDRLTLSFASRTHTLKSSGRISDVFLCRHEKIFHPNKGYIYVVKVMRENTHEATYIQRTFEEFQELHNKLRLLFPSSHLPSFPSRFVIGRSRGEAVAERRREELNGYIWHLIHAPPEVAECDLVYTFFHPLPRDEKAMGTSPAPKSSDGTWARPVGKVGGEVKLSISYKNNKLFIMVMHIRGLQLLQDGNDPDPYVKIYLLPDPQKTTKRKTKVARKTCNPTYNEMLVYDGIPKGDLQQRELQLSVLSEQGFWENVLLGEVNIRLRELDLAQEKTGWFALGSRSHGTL

Row | SMILES | kinase still bound, per cent of control (WEE2 (human)) | kinase still bound, per cent of control (TNK1 (human)) | kinase still bound, per cent of control (ACVR2B (human)) | kinase still bound, per cent of control (TNNI3K (human)) | kinase still bound, per cent of control (MINK1 (human)) | kinase still bound, per cent of control (MAPK15 (human)) | kinase still bound, per cent of control (DMPK (human)) | kinase still bound, per cent of control (SRMS (human)) | kinase still bound, per cent of control (KIT (human)) | kinase still bound, per cent of control (IRAK3 (human)) | kinase still bound, per cent of control (CDK15 (human)) | kinase still bound, per cent of control (CSK (human)) | kinase still bound, per cent of control (RPS6KA4 KD2 (human)) | kinase still bound, per cent of control (PKN2 (human)) | kinase still bound, per cent of control (MYO3B (human)) | kinase still bound, per cent of control (PRKACB (human)) | kinase still bound, per cent of control (PAK2 (human)) | kinase still bound, per cent of control (CDKL5 (human)) | kinase still bound, per cent of control (PIK3C2B (human)) | kinase still bound, per cent of control (TLK1 (human)) | also measured
1 | CCN(CCO)CCCOc1ccc2c(Nc3cc(CC(=O)Nc4cccc(F)c4)[nH]n3)ncnc2c1 | 100% | 86% | 100% | 100% | 25% | 100% | 93% | 29% | 0% | 37% | 88% | 24% | 79% | 86% | 100% | 100% | 100% | 50% | 58% | 60% | kinase still bound, per cent of control (AKT3 (human)): 88%; kinase still bound, per cent of control (VRK2 (human)): 100%; kinase still bound, per cent of control (PTK6 (human)): 72%; kinase still bound, per cent of control (CASK (human)): 88%; kinase still bound, per cent of control (LIMK1 (human)): 100%; kinase still bound, per cent of control (BTK (human)): 7.2%; kinase still bound, per cent of control (PIP4K2C (human)): 51%; kinase still bound, per cent of control [1]: 100%; kinase still bound, per cent of control (MAP2K5 (human)): 0.4%; kinase still bound, per cent of control (RPS6KA6 KD1 (human)): 74%; kinase still bound, per cent of control (CSNK1D (human)): 71%; kinase still bound, per cent of control (IKBKE (human)): 51%; kinase still bound, per cent of control [2]: 100%; kinase still bound, per cent of control (FGFR1 (human)): 85%; kinase still bound, per cent of control (AKT2 (human)): 90%; kinase still bound, per cent of control (ZAP70 (human)): 84%; kinase still bound, per cent of control [3]: 87%
2 | CCc1nc(-c2cccc(C)c2)c(-c2ccnc(NC(=O)c3ccccc3)c2)s1 | 100% | 88% | 17% | 86% | 8.4% | 100% | 92% | 83% | 45% | 84% | 95% | 88% | 100% | 76% | 48% | 95% | 85% | 100% | 100% | 82% | kinase still bound, per cent of control (AKT3 (human)): 95%; kinase still bound, per cent of control (VRK2 (human)): 63%; kinase still bound, per cent of control (PTK6 (human)): 30%; kinase still bound, per cent of control (CASK (human)): 100%; kinase still bound, per cent of control (FYN (human)): 45%; kinase still bound, per cent of control (LIMK1 (human)): 90%; kinase still bound, per cent of control (EPHA5 (human)): 90%; kinase still bound, per cent of control [1]: 93%; kinase still bound, per cent of control (MAP2K5 (human)): 5.2%; kinase still bound, per cent of control (RPS6KA6 KD1 (human)): 94%; kinase still bound, per cent of control (CSNK1D (human)): 2%; kinase still bound, per cent of control (IKBKE (human)): 100%; kinase still bound, per cent of control [2]: 95%; kinase still bound, per cent of control (FGFR1 (human)): 72%; kinase still bound, per cent of control (AKT2 (human)): 80%; kinase still bound, per cent of control (ZAP70 (human)): 100%; kinase still bound, per cent of control [3]: 80%
3 | CC(=O)c1c(C)c2cnc(Nc3ccc(N4CCNCC4)cn3)nc2n(C2CCCC2)c1=O | 75% | 61% | 100% | 98% | 7.6% | 9.4% | 80% | 49% | 60% | 36% | 39% | 90% | 3.2% | 48% | 100% | 100% | 93% | 1% | 98% | 42% | kinase still bound, per cent of control (CASK (human)): 60%; kinase still bound, per cent of control (FYN (human)): 100%; kinase still bound, per cent of control (BTK (human)): 13%; kinase still bound, per cent of control (PIP4K2C (human)): 1%; kinase still bound, per cent of control (EPHA5 (human)): 98%; kinase still bound, per cent of control (MAP2K5 (human)): 62%; kinase still bound, per cent of control (RPS6KA6 KD1 (human)): 20%; kinase still bound, per cent of control (CSNK1D (human)): 22%; kinase still bound, per cent of control (IKBKE (human)): 22%; kinase still bound, per cent of control [2]: 68%; kinase still bound, per cent of control (FGFR1 (human)): 66%; kinase still bound, per cent of control (ZAP70 (human)): 73%; kinase still bound, per cent of control [3]: 8.5%
4 | CCOc1cc(N2CCC(O)CC2)ccc1Nc1ncc2c(n1)N(C)c1ccccc1C(=O)N2C | 100% | 7.8% | 100% | 100% | 100% | 100% | 100% | 100% | 100% | 100% | 100% | 100% | 100% | 100% | 100% | 100% | 100% | 100% | 100% | 100% | kinase still bound, per cent of control (AKT3 (human)): 100%; kinase still bound, per cent of control (PTK6 (human)): 100%; kinase still bound, per cent of control (FYN (human)): 100%; kinase still bound, per cent of control (LIMK1 (human)): 100%; kinase still bound, per cent of control (BTK (human)): 100%; kinase still bound, per cent of control (EPHA5 (human)): 100%; kinase still bound, per cent of control [1]: 100%; kinase still bound, per cent of control (EGFR (human)): 100%; kinase still bound, per cent of control (RPS6KA6 KD1 (human)): 100%; kinase still bound, per cent of control (CSNK1D (human)): 100%; kinase still bound, per cent of control (IKBKE (human)): 100%; kinase still bound, per cent of control [2]: 100%; kinase still bound, per cent of control (FGFR1 (human)): 100%; kinase still bound, per cent of control (AKT2 (human)): 100%; kinase still bound, per cent of control (ZAP70 (human)): 100%; kinase still bound, per cent of control [3]: 100%
